Tested on: LNCaP cells
Assay: LNCaP cell viability assay (CellTiter-Glo)
Type: cell-based
Conditions: Homo sapiens, 72 h, LNCaP prostate cancer cell viability inhibition, 3 days
Method: LNCaP cells seeded in 96-well plates were treated with 10 μM GNE-781 or selected bivalent compounds, i.e. P-001, P-002, and P-019, following a 12-point 3-fold serial dilution. Three days after treatment, cell viability was determined using the CellTiter-Glo kit (Promega) following manufacturer's instructions. Cell viability was normalized to the mean values of 3 replicates of untreated cells. Dose-dependent response was analyzed following the least-squares non-linear regression method using the GraphPad Prism 5.0 software.
LNCaP cells were treated with GNE-781 or selected bivalent compounds for 3 days at indicated concentrations following a 3-fold serial dilution.
Cells were seeded at a density of 5000 cells per well in 96-well assay plates and treated with test compounds following a 12-point 3-fold serial dilution. Three days later, cell viability was determined using the CellTiter-Glo assay kit according to the manufacturer's instructions. The dose-response curves were determined and IC50 values were calculated using the GraphPad Prism software following a nonlinear regression (least squares fit) method.

Row | Compound | IC50 (CellTiter-Glo (Table 3)) [nM] | IC50 (CellTiter-Glo (Table 2)) [nM]
1 | CNC(=O)N1CCc2c(c(N3CCCc4cc(-c5cnn(C)c5)c(C(F)F)cc43)nn2C2CCN(C(=O)CCCCC#Cc3cccc4c3C(=O)N(C3CCC(=O)NC3=O)C4)CC2)C1 (stereo not drawn) [P-094, 3-(7-(Difluoromethyl)-6-(1-methyl-1H-pyrazol-4-yl)-3,4-dihydroquinolin-1(2H)-yl)-1-(1-(7-(2-(2,6-dioxopiperidin-3-yl)-3-oxoisoindolin-4-yl)hept-6-ynoyl)piperidin-4-yl)-N-methyl-1,4,6,7-tetrahydro-5H-pyrazolo[4,3-c]pyridine-5-carboxamide] | 228 | 
2 | CNC(=O)N1CCc2c(c(N3CCCc4cc(-c5cnn(CC(=O)NCCOCCOCCOCCOCCOCCC(=O)N[C@H](C(=O)N6C[C@H](O)CC6C(=O)NCc6ccc(-c7scnc7C)cc6)C(C)(C)C)c5)c(C(F)F)cc43)nn2C2CCOCC2)C1 (stereo in doubt) [P-082, 3-(7-(Difluoromethyl)-6-(1-((S)-23-((2S,4R)-4-hydroxy-2-((4-(4-methylthiazol-5-yl)benzyl)carbamoyl)pyrrolidine-1-carbonyl)-24,24-dimethyl-2,21-dioxo-6,9,12,15,18-pentaoxa-3,22-diazapentacosyl)-1H-pyrazol-4-yl)-3,4-dihydroquinolin-1(2H)-yl)-N-methyl-1-(tetrahydro-2H-pyran-4-yl)-1,4,6,7-tetrahydro-5H-pyrazolo[4,3-c]pyridine-5-carboxamide] | > 10000 | 
3 | CNC(=O)N1CCc2c(c(N3CCCc4cc(-c5cnn(C)c5)c(C(F)F)cc43)nn2C2CCN(C(=O)CN3CCN(Cc4cccc5c4C(=O)N(C4CCC(=O)NC4=O)C5=O)CC3)CC2)C1 (stereo not drawn) [P-137, 3-(7-(Difluoromethyl)-6-(1-methyl-1H-pyrazol-4-yl)-3,4-dihydroquinolin-1(2H)-yl)-1-(1-(2-(4-((2-(2,6-dioxopiperidin-3-yl)-1,3-dioxoisoindolin-4-yl)methyl)piperazin-1-yl)acetyl)piperidin-4-yl)-N-methyl-1,4,6,7-tetrahydro-5H-pyrazolo[4,3-c]pyridine-5-carboxamide] | > 500 | 
4 | CNC(=O)N1CCc2c(c(N3CCCc4cc(-c5cnn(C)c5)c(C(F)F)cc43)nn2C2CCN(C(=O)CNc3cccc4c3C(=O)N(C3CCC(=O)NC3=O)C4=O)CC2)C1 (stereo not drawn) [P-013] |  | 105
5 | CC(=O)N1CCc2c(c(N3CCCc4cc(-c5cnn(C)c5)c(C(F)F)cc43)nn2C2CCN(CCN3CCN(Cc4cccc5c4C(=O)N(C4CCC(=O)NC4=O)C5=O)CC3)CC2)C1 (stereo not drawn) [P-145, 4-((4-(2-(4-(5-Acetyl-3-(7-(difluoromethyl)-6-(1-methyl-1H-pyrazol-4-yl)-3,4-dihydroquinolin-1(2H)-yl)-4,5,6,7-tetrahydro-1H-pyrazolo[4,3-c]pyridin-1-yl)piperidin-1-yl)ethyl)piperazin-1-yl)methyl)-2-(2,6-dioxopiperidin-3-yl)isoindoline-1,3-dione] | > 1000 | 
6 | CC(=O)N1CCc2c(c(N3CCCc4cc(-c5cnn(C)c5)c(C(F)F)cc43)nn2C2CCN(CCCCCC(=O)Nc3cccc4c3C(=O)N(C3CCC(=O)NC3=O)C4=O)CC2)C1 (stereo not drawn) [P-136, 6-(4-(5-Acetyl-3-(7-(difluoromethyl)-6-(1-methyl-1H-pyrazol-4-yl)-3,4-dihydroquinolin-1(2H)-yl)-4,5,6,7-tetrahydro-1H-pyrazolo[4,3-c]pyridin-1-yl)piperidin-1-yl)-N-(2-(2,6-dioxopiperidin-3-yl)-1,3-dioxoisoindolin-4-yl)hexanamide] | > 500 | 
7 | CC(=O)N1CCc2c(c(N3CCCc4cc(-c5cnn(C)c5)c(C(F)F)cc43)nn2C2CCN(C3CCN(CCCOc4cccc5c4C(=O)N(C4CCC(=O)NC4=O)C5=O)CC3)CC2)C1 (stereo not drawn) [P-139, 4-(3-(4-(5-Acetyl-3-(7-(difluoromethyl)-6-(1-methyl-1H-pyrazol-4-yl)-3,4-dihydroquinolin-1(2H)-yl)-4,5,6,7-tetrahydro-1H-pyrazolo[4,3-c]pyridin-1-yl)-[1,4′-bipiperidin]-1′-yl)propoxy)-2-(2,6-dioxopiperidin-3-yl)isoindoline-1,3-dione] | > 500 | 
8 | CNC(=O)N1CCc2c(c(N3CCCc4cc(-c5cnn(C)c5)c(C(F)F)cc43)nn2C2CCN(CCN3CCN(Cc4cccc5c4C(=O)N(C4CCC(=O)NC4=O)C5=O)CC3)CC2)C1 (stereo not drawn) [P-144, 3-(7-(Difluoromethyl)-6-(1-methyl-1H-pyrazol-4-yl)-3,4-dihydroquinolin-1(2H)-yl)-1-(1-(2-(4-((2-(2,6-dioxopiperidin-3-yl)-1,3-dioxoisoindolin-4-yl)methyl)piperazin-1-yl)ethyl)piperidin-4-yl)-N-methyl-1,4,6,7-tetrahydro-5H-pyrazolo[4,3-c]pyridine-5-carboxamide] | > 1000 | 
9 | CNC(=O)N1CCc2c(c(N3CCCc4cc(-c5cnn(C)c5)c(C(F)F)cc43)nn2C2CCN(C(=O)CN3CCC(Nc4cccc5c4C(=O)N(C4CCC(=O)NC4=O)C5=O)CC3)CC2)C1 (stereo not drawn) [P-101, 3-(7-(Difluoromethyl)-6-(1-methyl-1H-pyrazol-4-yl)-3,4-dihydroquinolin-1(2H)-yl)-1-(1-(2-(4-((2-(2,6-dioxopiperidin-3-yl)-1,3-dioxoisoindolin-4-yl)amino)piperidin-1-yl)acetyl)piperidin-4-yl)-N-methyl-1,4,6,7-tetrahydro-5H-pyrazolo[4,3-c]pyridine-5-carboxamide] | > 1000 | 
10 | CC(=O)N1CCc2c(c(N3CCCc4cc(-c5cnn(C)c5)c(C(F)F)cc43)nn2C2CCN(C3CCN(CCOc4cccc5c4C(=O)N(C4CCC(=O)NC4=O)C5=O)CC3)CC2)C1 (stereo not drawn) [P-134, 4-(2-(4-(5-Acetyl-3-(7-(difluoromethyl)-6-(1-methyl-1H-pyrazol-4-yl)-3,4-dihydroquinolin-1(2H)-yl)-4,5,6,7-tetrahydro-1H-pyrazolo[4,3-c]pyridin-1-yl)-[1,4′-bipiperidin]-1′-yl)ethoxy)-2-(2,6-dioxopiperidin-3-yl)isoindoline-1,3-dione] | > 500 | 
11 | CC(=O)N1CCc2c(c(N3CCCc4cc(-c5cnn(C)c5)c(C(F)F)cc43)nn2C2CCN(C(=O)CN3CCN(Cc4cccc5c4C(=O)N(C4CCC(=O)NC4=O)C5=O)CC3)CC2)C1 (stereo not drawn) [P-138, 4-((4-(2-(4-(5-Acetyl-3-(7-(difluoromethyl)-6-(1-methyl-1H-pyrazol-4-yl)-3,4-dihydroquinolin-1(2H)-yl)-4,5,6,7-tetrahydro-1H-pyrazolo[4,3-c]pyridin-1-yl)piperidin-1-yl)-2-oxoethyl)piperazin-1-yl)methyl)-2-(2,6-dioxopiperidin-3-yl)isoindoline-1,3-dione] | > 500 | 
12 | CNC(=O)N1CCc2c(c(N3CCCc4cc(-c5cnn(C)c5)c(C(F)F)cc43)nn2C2CCN(C(=O)CN3CCC(C#Cc4cccc5c4C(=O)N(C4CCC(=O)NC4=O)C5=O)CC3)CC2)C1 (stereo not drawn) [P-103, 3-(7-(Difluoromethyl)-6-(1-methyl-1H-pyrazol-4-yl)-3,4-dihydroquinolin-1(2H)-yl)-1-(1-(2-(4-((2-(2,6-dioxopiperidin-3-yl)-1,3-dioxoisoindolin-4-yl)ethynyl)piperidin-1-yl)acetyl)piperidin-4-yl)-N-methyl-1,4,6,7-tetrahydro-5H-pyrazolo[4,3-c]pyridine-5-carboxamide] | 146 | 
13 | CC(=O)N1CCc2c(c(N3CCCc4cc(-c5cnn(C)c5)c(C(F)F)cc43)nn2C2CCN(C3CN(CCCOc4cccc5c4C(=O)N(C4CCC(=O)NC4=O)C5=O)C3)CC2)C1 (stereo not drawn) [P-140, 4-(3-(3-(4-(5-Acetyl-3-(7-(difluoromethyl)-6-(1-methyl-1H-pyrazol-4-yl)-3,4-dihydroquinolin-1(2H)-yl)-4,5,6,7-tetrahydro-1H-pyrazolo[4,3-c]pyridin-1-yl)piperidin-1-yl)azetidin-1-yl)propoxy)-2-(2,6-dioxopiperidin-3-yl)isoindoline-1,3-dione] | > 500 | 
14 | CNC(=O)N1CCc2c(c(N3CCCc4cc(-c5cnn(C)c5)c(C(F)F)cc43)nn2C2CCN(CCCCCC#Cc3cccc4c3C(=O)N(C3CCC(=O)NC3=O)C4=O)CC2)C1 (stereo not drawn) [P-098, 3-(7-(Difluoromethyl)-6-(1-methyl-1H-pyrazol-4-yl)-3,4-dihydroquinolin-1(2H)-yl)-1-(1-(7-(2-(2,6-dioxopiperidin-3-yl)-1,3-dioxoisoindolin-4-yl)hept-6-yn-1-yl)piperidin-4-yl)-N-methyl-1,4,6,7-tetrahydro-5H-pyrazolo[4,3-c]pyridine-5-carboxamide] | 1070 | 
15 | CNC(=O)N1CCc2c(c(N3CCCc4cc(-c5cnn(CC(=O)NCCOCCOCC(=O)N[C@H](C(=O)N6C[C@H](O)CC6C(=O)NCc6ccc(-c7scnc7C)cc6)C(C)(C)C)c5)c(C(F)F)cc43)nn2C2CCOCC2)C1 (stereo in doubt) [P-083, 3-(7-(Difluoromethyl)-6-(1-((S)-13-((2S,4R)-4-hydroxy-2-((4-(4-methylthiazol-5-yl)benzyl)carbamoyl)pyrrolidine-1-carbonyl)-14,14-dimethyl-2,11-dioxo-6,9-dioxa-3,12-diazapentadecyl)-1H-pyrazol-4-yl)-3,4-dihydroquinolin-1(2H)-yl)-N-methyl-1-(tetrahydro-2H-pyran-4-yl)-1,4,6,7-tetrahydro-5H-pyrazolo[4,3-c]pyridine-5-carboxamide] | > 10000 | 

From US20230073777A1, “CYCLIC-AMP RESPONSE ELEMENT BINDING PROTEIN (CBP) AND/OR ADENOVIRAL E1A BINDING PROTEIN OF 300 KDA (P300) DEGRADATION COMPOUNDS AND METHODS OF USE” (CULLGEN (SHANGHAI), INC., priority 2019, published 2023)
